“And” between values parts separate entries of the source, which are not always exact repeats. Identical values can stand only once.
Legend:
mice = assay: Ulcerogenicity measurement; format: in vivo; conditions: for Average number of ulcers / Mean sum of lengths of elongated ulcer: mice; for Mean sum of lengths of elongated ulcer: ± SEM; for level of ulcerogenic activity (in words): relative to diclofenac and celecoxib
Procedure: Ulcerogenicity was evaluated according to a previously reported method[6]^a,[17]^,[18]. The number and total length of the ulcers for each animal were measured and their averages were calculated and used as the ulcer indices.

[1] = test system: carrageenan induced rat paw oedema; assay: rat carrageenan-induced foot paw oedema model; format: in vivo; conditions: for Mean % increase in paw weight ± SEM / % Inhibition of paw oedema from control group: 2 h after carrageenan; for Mean % increase in paw weight ± SEM: control group 165.6 ± 1.6; for % Inhibition of paw oedema from control group: single dose screen (Table 1); for ED50: from three graded doses (45, 65, 80 mg/kg)
Procedure: Anti-inflammatory assessment of the newly synthesised compounds was carried out using an in vivo rat carrageenan-induced foot paw oedema model, as reported previously[16]^,[17].

COX-2 = target: T1, COX-2 (Ovis aries, UniProt P79208); assay: colorimetric COX (ovine) inhibitor screening assay kit; format: biochemical; conditions: for SI, selectivity index (COX-1 IC50/COX-2 IC50): ovine COX-1/COX-2; for IC50: ovine COX-2, mean of two determinations
T1 construct: purchased Cayman Chemicals Inc., Ann Arbour, MI
T1 sequence (P79208 17-603): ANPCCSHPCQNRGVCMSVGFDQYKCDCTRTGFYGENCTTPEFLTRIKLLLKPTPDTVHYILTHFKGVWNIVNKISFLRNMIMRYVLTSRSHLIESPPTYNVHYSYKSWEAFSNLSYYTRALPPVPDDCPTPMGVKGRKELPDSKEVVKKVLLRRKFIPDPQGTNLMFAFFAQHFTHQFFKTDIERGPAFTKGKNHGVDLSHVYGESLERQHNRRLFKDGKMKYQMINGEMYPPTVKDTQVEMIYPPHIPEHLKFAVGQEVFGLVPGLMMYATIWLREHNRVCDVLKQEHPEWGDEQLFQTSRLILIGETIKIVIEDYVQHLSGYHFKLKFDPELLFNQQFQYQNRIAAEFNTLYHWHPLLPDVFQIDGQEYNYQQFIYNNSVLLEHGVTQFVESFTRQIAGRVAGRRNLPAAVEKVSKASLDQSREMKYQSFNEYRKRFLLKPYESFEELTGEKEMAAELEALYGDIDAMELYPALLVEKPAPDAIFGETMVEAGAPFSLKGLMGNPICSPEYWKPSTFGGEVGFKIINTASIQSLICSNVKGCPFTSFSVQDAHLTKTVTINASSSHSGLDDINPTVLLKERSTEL
Excerpt: (§1) To determine the relative ability of the test compounds and reference drugs to inhibit COX-1/COX-2 isozymes, we used the colorimetric COX (ovine) inhibitor screening assay kit (Cayman Chemicals Inc., Ann Arbour, MI), according to the manufacturer’s instructions[3]^,[10]^,[11]^,[20].

COX-1 = target: T2, COX-1 (Ovis aries, UniProt P05979); assay: as above; format: biochemical; conditions: ovine COX-1, mean of two determinations
T2 construct: purchased Cayman Chemicals Inc., Ann Arbour, MI
T2 sequence (P05979 25-600): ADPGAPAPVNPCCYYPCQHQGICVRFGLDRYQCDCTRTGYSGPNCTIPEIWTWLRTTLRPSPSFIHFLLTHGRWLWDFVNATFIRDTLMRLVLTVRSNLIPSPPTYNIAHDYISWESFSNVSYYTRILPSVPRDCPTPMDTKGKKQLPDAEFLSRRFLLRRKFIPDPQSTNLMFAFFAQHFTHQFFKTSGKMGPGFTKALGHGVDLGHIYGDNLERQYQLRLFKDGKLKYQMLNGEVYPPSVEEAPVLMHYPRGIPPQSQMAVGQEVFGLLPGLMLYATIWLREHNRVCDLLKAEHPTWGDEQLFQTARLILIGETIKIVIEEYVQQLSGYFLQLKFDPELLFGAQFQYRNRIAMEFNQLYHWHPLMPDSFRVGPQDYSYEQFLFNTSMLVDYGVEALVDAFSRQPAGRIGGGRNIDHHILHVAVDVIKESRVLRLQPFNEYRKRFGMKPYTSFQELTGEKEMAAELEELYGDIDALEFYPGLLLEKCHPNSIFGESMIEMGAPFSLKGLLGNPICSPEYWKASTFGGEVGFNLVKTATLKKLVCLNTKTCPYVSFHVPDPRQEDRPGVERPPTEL
Excerpt: as §1

Row | SMILES | melting point | SI, selectivity index (COX-1 IC50/COX-2 IC50) (COX-2) | IC50 (COX-2) | IC50 (COX-1) | Average number of ulcers (mice) | Mean sum of lengths of elongated ulcer (mice) | Mean % increase in paw weight ± SEM [1] | % Inhibition of paw oedema from control group [1] | % Inhibition of paw oedema from control group ([1]; listed as celecoxib) | Percentage inhibition of paw oedema from control group ([1]; dose 45 mg/kg) | Percentage inhibition of paw oedema from control group ([1]; dose 65 mg/kg) | Percentage inhibition of paw oedema from control group ([1]; dose 80 mg/kg) | ED50 [1] | level of ulcerogenic activity (in words) (mice)
1 | Cc1ccc(-c2cc(C(F)(F)F)nn2-c2ccc(S(N)(=O)=O)cc2)cc1 [Celecoxib, 4-[5-(4-methylphenyl)-3-(trifluoromethyl)-1H-pyrazol-1-yl]benzenesulfonamide, reference compound] |  |  |  |  | 5 | 5.8 ± 0.77 mm | 27.3 ± 0.4% | 85.6 ± 0.4% | 85.6% | 69.8% | 85.6% | 93.5% | 34.1 mg/kg | 
2 | NS(=O)(=O)c1cccc(N2C(=O)c3cc(Cl)c(Cl)cc3C2=O)c1 [Compound 7, 3-(5,6-Dichloro-1,3-dioxoisoindolin-2-yl)benzenesulfonamide] | 256 to 258 °C |  |  |  |  |  | 129.7 ± 0.9% | 29.7% and 29.7 ± 0.2% |  |  |  |  |  | 
3 | NS(=O)(=O)c1cccc(N2C(=O)c3cccc4cccc(c34)C2=O)c1 [Compound 10, 3-(1,3-Dioxo-1H-benzo[de]isoquinolin-2(3H)-yl)benzenesulfonamide] | 241 to 243 °C | >14.3 | 3.5 µM | > 50 µM |  |  | 93.7 ± 0.4% | 49.2% and 49.2 ± 0.6% |  |  |  |  |  | 
4 | C/C(=N/O)c1ccc(N2C(=O)c3cc(Cl)c(Cl)cc3C2=O)cc1 [Compound 16] |  |  |  |  |  |  | 115.3 ± 1.2% | 39.6% and 39.6 ± 0.4% |  |  |  |  |  | 
5 | C/C(=N/O)c1ccc(N2C(=O)c3c(Cl)c(Cl)c(Cl)c(Cl)c3C2=O)cc1 [Compound 17] |  |  |  |  |  |  | 135.6 ± 0.8% | 25.1% and 25.1 ± 0.6% |  |  |  |  |  | 
6 | O=C(O)CC(c1ccccc1)N1C(=O)C2CC=CCC2C1=O (stereo not drawn) [Compound 22] |  | 0.46 | 25.1 µM | 11.6 µM |  |  | 69.1 ± 0.5% | 62.9 ± 0.4% |  |  |  |  |  | 
7 | O=C(O)CC(c1ccccc1)N1C(=O)c2ccccc2C1=O (stereo not drawn) [Compound 23] |  | 0.49 | 22.3 µM | 10.9 µM |  |  | 65.6 ± 0.3% | 64.4% and 64.4 ± 0.7% |  |  |  |  |  | 
8 | Cc1ccc2c(c1)C(=O)N(C(CC(=O)O)c1ccccc1)C2=O (stereo not drawn) [Compound 24] |  | 0.68 | 36.3 µM | 24.8 µM |  |  | 123.4 ± 0.9% | 33.1 ± 0.4% |  |  |  |  |  | 
9 | O=C(O)CC(c1ccccc1)N1C(=O)c2cc(Cl)c(Cl)cc2C1=O (stereo not drawn) [Compound 26, 3-(5,6-Dichloro-1,3-dioxoisoindolin-2-yl)-3-phenylpropanoic acid] | 205 to 207 °C |  |  |  |  |  | 136.3 ± 0.8% | 24.4 ± 0.3% |  |  |  |  |  | 
10 | O=C(O)CC(c1ccccc1)N1C(=O)c2c(Cl)c(Cl)c(Cl)c(Cl)c2C1=O (stereo not drawn) [Compound 27, 3-Phenyl-3-(4,5,6,7-tetrachloro-1,3-dioxoisoindolin-2-yl)propanoic acid] | 280 to 282 °C |  |  |  |  |  | 141.6 ± 1.0% | 21.2 ± 0.9% |  |  |  |  |  | 
11 | O=C(O)Cc1ccccc1Nc1c(Cl)cccc1Cl [Diclofenac, reference compound] |  |  |  |  | 10 | 7.6 ± 0.89 mm | 30.1 ± 0.3% | 83.4% and 83.4 ± 0.5% |  |  |  |  |  | 

Second part, led by results:

Row | melting point | SI, selectivity index (COX-1 IC50/COX-2 IC50) (COX-2) | IC50 (COX-2) | IC50 (COX-1) | SMILES | Average number of ulcers (mice) | Mean sum of lengths of elongated ulcer (mice) | Mean % increase in paw weight ± SEM [1] | % Inhibition of paw oedema from control group [1] | % Inhibition of paw oedema from control group ([1]; listed as celecoxib) | Percentage inhibition of paw oedema from control group ([1]; dose 45 mg/kg) | Percentage inhibition of paw oedema from control group ([1]; dose 65 mg/kg) | Percentage inhibition of paw oedema from control group ([1]; dose 80 mg/kg) | ED50 [1] | level of ulcerogenic activity (in words) (mice)
12 |  | >333.3 | 0.15 µM | > 50 µM | NS(=O)(=O)c1cccc(N2C(=O)c3ccc([N+](=O)[O-])cc3C2=O)c1 [Compound 9] | 4 | 1.7 ± 0.21 mm | 35.6 ± 0.1% | 80.9% and 80.9 ± 0.9% |  | 69.8% | 80.9% | 90.5% | 37 mg/kg | very low levels of ulcerogenic activity
13 | 184 to 186 °C | >227.3 | 0.22 µM | > 50 µM | CC(=NO)c1ccc(N2C(=O)CCC2=O)cc1 [Compound 11, 1-(4-(1-(Hydroxyimino)ethyl)phenyl)pyrrolidine-2,5-dione] |  |  | 45.0 ± 0.3% | 75.6% and 75.6 ± 0.6% |  |  |  |  |  | 
14 |  | >312.5 | 0.16 µM | > 50 µM | C/C(=N/O)c1ccc(N2C(=O)C3CC=CCC3C2=O)cc1 (stereo not drawn) [Compound 12] | 5 | 2.4 ± 0.13 mm | 37.5 ± 0.5% | 79.7% and 79.7 ± 0.4% |  | 65.3% | 79.7% | 87.4% | 39.2 mg/kg | ulcerogenic level similar to celecoxib and less than that of diclofenac
15 |  | >312.5 | 0.16 µM | > 50 µM | C/C(=N/O)c1ccc(N2C(=O)c3ccccc3C2=O)cc1 [Compound 13] | 5 | 2.1 ± 0.23 mm | 36.2 ± 0.2% | 80.4% and 80.4 ± 0.7% |  | 67.9% | 80.4% | 91.1% | 37.5 mg/kg | ulcerogenic level similar to celecoxib and less than that of diclofenac
16 |  | >62.5 | 0.8 µM | > 50 µM | C/C(=N/O)c1ccc(N2C(=O)c3ccc(C)cc3C2=O)cc1 [Compound 14] |  |  | 70.8 ± 0.6% | 61.6% and 61.6 ± 0.5% |  |  |  |  |  | 
17 |  | >14.3 | 3.5 µM | > 50 µM | C/C(=N/O)c1ccc(N2C(=O)c3ccc(C(C)(C)C)cc3C2=O)cc1 [Compound 15] |  |  | 95.7 ± 0.9% | 48.1% and 48.1 ± 0.2% |  |  |  |  |  | 
18 | > 300 °C | >178.6 | 0.28 µM | > 50 µM | CC(=NO)c1ccc(N2C(=O)c3cccc4cccc(c34)C2=O)cc1 [Compound 19, 2-(4-(1-(Hydroxyimino)ethyl)phenyl)-1H-benzo[de]isoquinoline-1,3(2H)-dione] |  |  | 57.6 ± 0.5% | 68.8% and 68.8 ± 0.4% |  |  |  |  |  | 
19 | 119 to 121 °C |  |  |  | CC(C)(C)c1ccc2c(c1)C(=O)N(C(CC(=O)O)c1ccccc1)C2=O (stereo not drawn) [Compound 25, 3-(5-(tert-Butyl)-1,3-dioxoisoindolin-2-yl)-3-phenylpropanoic acid] |  |  | 129.0 ± 1.1% | 29.6 ± 0.7% |  |  |  |  |  | 
20 | 151 to 153 °C |  |  |  | O=C(O)CC(c1ccccc1)N1C(=O)c2cccc3cccc(c23)C1=O (stereo not drawn) [Compound 29, 3-(1,3-Dioxo-1H-benzo[de]isoquinolin-2(3H)-yl)-3-phenylpropanoic acid] |  |  | 130.8 ± 0.7% | 27.0% and 27.0 ± 0.1% |  |  |  |  |  | 

From PMC7034070, “Synthesis, anti-inflammatory, cytotoxic, and COX-1/2 inhibitory activities of cyclic imides bearing 3-benzenesulfonamide, oxime, and β-phenylalanine scaffolds: a molecular docking study” (Journal of Enzyme Inhibition and Medicinal Chemistry, 2020)
